Measured values reported in patent US10945962B2, “Controlled-release peptide compositions and uses thereof” (BOARD OF REGENTS OF THE UNIVERSITY OF NEBRASKA, priority 2011, dated 2021).
Read-outs that look alike come from different tables or passages of the source. Square brackets hold non-standard residues; d marks the D form. Ends that are not written are not given here. NMeL = CN[C@@H](CC(C)C)C(=O)O

Legend:
exMAcs and neutrophils = conditions: aged lung
Excerpt: Since the aged mouse is considered a strong model for age-related changes in human immunity, the response of aged mice to EP67 insufflation was examined.

[1] = test system: anti-influenza antibodies; test: ELISA for anti-influenza antibodies on serum; assay type: in vivo, mice; conditions: influenza-infected, EP67-treated groups
BAL cells = conditions: infected with influenza A/PR/8 and simultaneously treated, one day later
Method: To test the robustness of the EP67 response, mice were treated at the time of influenza infection. Animals were sacrificed one day later for analysis of BAL cells as above.

influenza A/A/PR/8 = assay type: in vivo; conditions: mice
[2] = test system: S. aureus (Newman strain); test: S. aureus in vitro EP67 killing curves; assay type: cell-based; conditions: dilution series, LB
Method: 150 μl of LB growth medium plus 50 μl of EP67 or s-EP67 were added to individual culture wells resulting in a dilution series of 6 wells per EP67 or s-EP67. A “no EP67” well (control) was included at the end of each series. S. aureus (Newman strain) was allowed to grow to an OD600 of 0.4 and each well of the dilution series was inoculated with 5 μl of the culture. Two wells with no bacterial inoculums were included to serve as controls. Plates were incubated at 37° C. with agitation and the OD600 of each well was measured hourly using a plate reader.

CA-MRSA strain USA300 = test: Mouse model of MRSA dermonecrotic infection (lesion size, bacterial load); assay type: in vivo, Staphylococcus aureus
E. coli strain DHSα = test: Direct killing of bacteria, OD600 growth curves; assay type: cell-based
Method: E. coli strain DHSα was grown overnight in Lennox Broth (LB). This culture was diluted to an optical density at […] (OD600) of 0.06. The diluted E. coli was dispensed in 1.5 ml aliquots into separate tubes and 1.5 ml of EP67 ([…] ID NO: 4)), EP54 ([…] NO: 3)), scrambled-EP67 (s-EP67) or scrambled-EP54 in LB was added to obtain a final concentration of 500 μg/ml with the E. coli at an OD600 of 0.03. A culture in LB was also prepared. The cultures were incubated at 37° C. with shaking and the OD600 readings recorded hourly. In order to determine whether the growth media altered the effectiveness of EP67, LB was replaced with an alternative growth media, Tryptic Soy Broth (TSB). To test the efficacy of EP67 on bacteria growing in log phase, overnight cultures of DHSα were grown in either LB or TSB. […] DH5α control cultures (absence of additives) were also prepared. The tubes were further shaken at 37° C. and OD600 readings were taken hourly.

GBS = test: Group B Streptococcus (GBS) meningitis model; assay type: in vivo; conditions: CD1 mice, 250 μg i.p. at day −1, 0, 1 and 2, 96 hours post-injection
Method: 8-week-old female CD1 mice were treated with 250 μg of EP67 or s-EP67 at day −1, 0, 1 and 2 via i.p. injection. GBS was injected i.p. at 1×10^9 cfu/mouse. Brains and blood were harvested from each mouse 96 hours post-injection. The tissue was homogenized, diluted and plated to determine the cfu/g bacteria.

neutrophils = test: Neutrophil chemotaxis and myeloperoxidase assay, histopathology of injection site; assay type: in vivo, CD1 mice
Method: Neutrophil chemotaxis and myeloperoxidase assay. Neutrophil recruitment at the site of injection by EP67 or sEP67 was examined using an in vivo chemotaxis assay as described previously (van Sorge N M, et al., PLoS One 2008; 3:e2964). Briefly, 250 μg EP67 or sEP67 were injected subcutaneously into the right flank of CD1 mice. The injection was repeated after 24 h. Mice were euthanized 4 h after the second injection and the site of injection excised for histopathologic analysis or determination of myeloperoxidase (MPO) activity as described previously (van Sorge N M, et al., supra). The assay was carried out two times and the samples analyzed in duplicate.
Neutrophil influx is essential for the protective action of EP67. […] Neutrophil recruitment to the site of EP67 injection was further analyzed using an in vivo neutrophil recruitment assay as described previously (van Sorge N M, et al., supra; and Banerjee A, et al., Cell Microbiol; 12:1576-1588). Neutrophil migration was assessed in skin homogenates following injection of EP67 or sEP67 by determining the level of neutrophil enzyme myeloperoxidase (MPO), which serves as an effective indication of neutrophil infiltration (Banerjee A, et al., supra; and Bradley P P, et al., J Invest Dermatol 1982; 78:206-209). This method compares well with other in vivo assays of neutrophil chemotaxis (van Sorge N M, et al., supra).

[3] = test system: IL-6, TNF-α, INF-γ and KC; test: Measurement of cytokines in tissue homogenates by ELISA; assay type: in vivo, mice
Method: Measurement of cytokines. IL-6, TNF-α, INF-γ and KC inflammatory cytokines were measured in tissue homogenates as previously described using ELISA for IL-6, TNF-α, INF-γ (Morgan E L, et al., Vaccine; 28:8275-8279), or according to manufacturer's protocols (BD and R&D Systems) for KC. Samples were run in triplicate.
Proinflammatory cytokines are enhanced by EP67 treatment. The decrease in lesion size observed in EP67-treated animals indicated an enhanced immune activation in these animals. In order to determine the nature of the immune response activated by EP67 treatment, skin lesions were harvested 48 h post-infection and EP67 or sEP67 treatment, and subjected to ELISA to measure proinflammatory cytokines in tissue homogenates.

[4] = test system: bronchoalveolar lavage (BAL) cells; test: Insufflation of EP67 to the lungs, FACS analysis of BAL cells; assay type: in vivo, mice
Method: In short, EP67 (3 mg/kg) was delivered directly to the lungs of mice through insufflation (IN). Animals were sacrificed one day later. Lungs were lavaged with PBS to isolate the bronchoalveolar lavage (BAL) cells for staining and FACS analysis.

[5] = test system: S. aureus (USA300 LAC strain) biofilm; test: Catheter-associated biofilm bacterial burden; assay type: in vivo; conditions: C57BL/6 mice, Day 3, relative to sEP67 and PBS vehicle
Method: A S. aureus (USA300 LAC strain) biofilm was established on a hollow catheter (1 cm in length) inserted subcutaneously into C57BL/6 mice by introducing 1000 CFUs of S. aureus into the catheter lumen. At the time of infection, one dose of EP67 (200 μg/ml dissolved in PBS) was introduced. At both 24 and 48 h following infection, a series of four injections of EP67 were made; two into each open end of the catheter (20 μl each) and two along the top and bottom at points perpendicular to the middle of the catheter (50 μl each). Samples of the biofilm and surrounding tissue were obtained at Day 3 and assessed for the presence of viable bacteria by standard culture methods.

[6] = 48 h post-infection, compared to sEP67
[7] = EP67 3 mg/kg insufflation, one day later

Tyr-Ser-Phe-Lys-Asp-Met-Pro-MeL-(D-Ala)-Arg (YSFKDMP[NMeL][dA]R; listed as Homo sapiens) [EP67, C-terminal analog of C5a]
exMAcs and neutrophils in the alveolar space (exMAcs and neutrophils): induces a large population of exMAcs and neutrophils into the alveolar space | anti-influenza Abs in serum [1]: a high concentration of anti-influenza Abs was found in each group | BAL exMAcs and neutrophils (BAL cells): showed a similar increase in BAL exMAcs and neutrophils to the uninfected animals treated with EP67 | influenza-induced weight loss (influenza A/A/PR/8; treated one day after infection): displayed significant protection from influenza-induced weight loss | influenza-induced weight loss (influenza A/A/PR/8; treated the day before infection or the day of infection): lost significantly less weight than the non-treated animals | effect on bacterial growth (OD600) [2]: dose dependent inhibitory effect | cutaneous lesion size (CA-MRSA strain USA300; CD1 mice, 250 μg s.c., 48 h post-bacterial inoculation, compared to sEP67): significantly reduced | bacterial load (CFU) within lesions (CA-MRSA strain USA300; CD1 mice, 5 days post-inoculation, compared to sEP67 or PBS): significant reduction in bacterial load | lesion size (CA-MRSA strain USA300; CD88−/− mice, EP67 versus sEP67): no difference in lesion size | lesion size (CA-MRSA strain USA300; CD-1 mice given isotype IgG control antibody, compared to sEP67): significant reduction in lesion size | lesion size (CA-MRSA strain USA300; neutropenic CD-1 mice (RB6-8C5 monoclonal antibody), EP67 versus sEP67): no quantifiable difference in lesion size | lesion size (CA-MRSA strain USA300; wild-type CD88+/+ C57Bl/6 mice, compared to sEP67): significantly smaller lesions | effect on bacterial growth (OD600) (E. coli strain DHSα; 500 μg/ml, start OD600 0.03, LB or TSB): induces direct bacteriostatic/bacteriocidal effects | effect on log phase growth (OD600) (E. coli strain DHSα; added at OD600 0.2, 500 μg/m, LB or TSB): significantly reduce and/or stop log phase growth | protection against GBS infection (cfu/g in brain and blood) (GBS): protects against GBS infections in the central nervous system | histopathologic analysis of skin tissue (neutrophils; 250 μg s.c., no bacteria): massive influx of inflammatory cells, including neutrophils | myeloperoxidase (MPO) level, accumulating neutrophils (neutrophils; skin homogenates, 250 μg s.c. twice, compared to sEP67): significantly higher | IL-6 level in skin lesion homogenate [3, 6]: Significantly higher levels | murine KC level in skin lesion homogenate [3, 6]: Significantly higher levels | INF-γ production ([3]; during MRSA infection): increase | TNF-α production ([3]; during MRSA infection): increase | CD11b+CD11c− cells (GR-1+ neutrophils) in the alveolar space [4, 7]: a large population of CD11b^+CD11c^− cells appeared in the alveolar space | exudate macrophages (exMac) in BAL cells [4, 7]: appearance of cells bearing the CD11b^+CD11c^+ phenotype of exudate macrophages (exMac) | dose dependence of EP67-induced changes in BAL populations ([4]; mouse, in vivo): displayed a strict dose-response | time course of the EP67 response in BAL cells ([4]; seven days post EP67 administration): the neutrophils were largely lost | bacterial burdens within the biofilm and surrounding tissue [5]: significant decrease in bacterial burdens within the biofilm and surrounding tissue
